Earlier results in patent US20050038473A1, “Device and method for the treatment of pilosebaceous disorders” (priority 2003, published 2005).
Where two headings read alike, the source gives them in different places.

Columns and labels:
[1] = test system: in-vitro hair follicle cultures; conditions: 5-alpha-reductase blocker, versus finasteride
androgen receptors = target: T1, androgen receptors (Homo sapiens, UniProt P10275); conditions: compared with testosterone
T1 sequence (P10275 1-920): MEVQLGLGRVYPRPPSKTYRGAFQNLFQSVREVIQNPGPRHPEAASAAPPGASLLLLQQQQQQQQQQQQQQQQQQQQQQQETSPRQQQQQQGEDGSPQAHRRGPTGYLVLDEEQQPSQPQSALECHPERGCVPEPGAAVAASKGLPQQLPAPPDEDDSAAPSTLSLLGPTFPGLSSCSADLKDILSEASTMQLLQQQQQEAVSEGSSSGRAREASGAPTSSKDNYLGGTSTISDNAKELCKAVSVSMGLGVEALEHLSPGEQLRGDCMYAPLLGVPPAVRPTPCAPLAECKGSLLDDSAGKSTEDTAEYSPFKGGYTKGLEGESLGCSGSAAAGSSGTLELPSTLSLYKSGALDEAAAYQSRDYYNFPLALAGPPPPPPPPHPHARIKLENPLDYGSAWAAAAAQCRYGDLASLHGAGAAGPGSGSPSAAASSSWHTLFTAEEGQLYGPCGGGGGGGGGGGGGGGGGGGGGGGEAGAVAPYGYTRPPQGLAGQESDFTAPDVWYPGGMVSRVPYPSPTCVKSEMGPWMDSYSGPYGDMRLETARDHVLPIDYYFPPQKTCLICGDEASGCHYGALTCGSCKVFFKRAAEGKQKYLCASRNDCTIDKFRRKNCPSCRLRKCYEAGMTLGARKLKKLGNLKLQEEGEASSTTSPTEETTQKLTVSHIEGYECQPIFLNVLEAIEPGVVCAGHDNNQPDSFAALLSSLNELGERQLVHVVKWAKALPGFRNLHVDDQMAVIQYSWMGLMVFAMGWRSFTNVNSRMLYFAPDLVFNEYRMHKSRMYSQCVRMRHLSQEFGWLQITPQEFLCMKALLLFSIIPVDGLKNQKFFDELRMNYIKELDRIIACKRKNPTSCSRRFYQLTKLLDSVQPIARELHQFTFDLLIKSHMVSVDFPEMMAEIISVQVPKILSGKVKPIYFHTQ

idiopathic hirsutism = conditions: women with idiopathic hirsutism taking flutamide

For `C=C1/C(=C\C=C2/CCC[C@]3(C)[C@@H]([C@H](C)CCCC(C)(C)O)CC[C@@H]23)C[C@@H](O)C[C@@H]1O` [1,25-dihydroxyvitamin D3], the “effect on hair and hair follicle growth” value (hair follicles; high concentration (100 nM) and after longer contact) is listed as “inhibits” and the “effect on hair and hair follicle growth” value (hair follicles; low concentration (1-10 nM), direct contact with hair follicles) is listed as “stimulates”.
For `CCN(CC)C(=O)[C@H]1CC[C@H]2[C@@H]3CC[C@H]4N(C)C(=O)CC[C@]4(C)[C@H]3CC[C@]12C` [17-beta-N,N-diethylcarbamyl-4-methyl-4-aza-5-androstan-3-one], the “effect on in-vitro hair follicle cultures compared with finasteride” value [1] is listed as “greater effect”.
For `CN1C(=S)N(c2ccc(C#N)c(C(F)(F)F)c2)C(=O)C1(C)C` [RU 56187], the “affinity for androgen receptors relative to the affinity of testosterone” value (androgen receptors) is listed as “three times higher”.
In the case of `CC1(C)C(=O)N(c2ccc(C#N)c(C(F)(F)F)c2)C(=S)N1CCCCO` [RU 59063], the “affinity for androgen receptors relative to the affinity of testosterone” value (androgen receptors) is given as “three times higher”.
In the case of `CC(C)C(=O)Nc1ccc([N+](=O)[O-])c(C(F)(F)F)c1` [flutamide], the “disturbance of plasma levels of gonadotropins, testosterone, androstenedione or dehydroepiandrostenedione” value (idiopathic hirsutism) is given as “without disturbance”.
